From US20240228506A1, “RIPK1 INHIBITORS AND METHODS OF USE” (Merck Sharp & Dohme LLC, priority 2021, published 2024)

Target: T1, GST-RIPK1 (recombinant GST-RIPK1 kinase domain (residues 1-327)) (Homo sapiens, UniProt Q13546)
T1 construct: recombinant GST-RIPK1 kinase domain (residues 1-327) enzyme; made in house; host or cells: baculovirus-transfected Sf21 insect cells
T1 sequence (Q13546 1-327): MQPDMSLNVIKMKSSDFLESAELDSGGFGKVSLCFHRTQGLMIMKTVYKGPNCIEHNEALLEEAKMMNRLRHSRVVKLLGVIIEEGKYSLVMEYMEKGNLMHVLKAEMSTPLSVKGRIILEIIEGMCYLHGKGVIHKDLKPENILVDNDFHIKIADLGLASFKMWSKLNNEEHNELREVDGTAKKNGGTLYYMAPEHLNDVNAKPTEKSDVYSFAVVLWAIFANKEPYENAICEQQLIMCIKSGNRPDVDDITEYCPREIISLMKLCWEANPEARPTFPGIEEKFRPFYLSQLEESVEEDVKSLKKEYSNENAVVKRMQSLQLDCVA
Test: RIPK1-ADP-Glo enzymatic assay
Format: biochemical
Details: 25 nM GST-RIPK1, 300 μM ATP, 3 μM dephosphorylated-MBP; 30 minutes pre-incubation, 150 minutes reaction; ten-point titration
Procedure, shortened: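 Ten-point 1:3 titrations from 100000 nM, 1% DMSO, were preincubated 30 min with 25 nM GST-RIPK1 (1-327) before starting with 300 μM ATP plus 3 μM dephosphorylated MBP; 150 min reaction. ADP-Glo luminescence measured ATP-to-ADP conversion; EC50 by four-parameter sigmoidal regression.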

SMILES	IC50 [nM]
CCC(C)(C(=O)N1C[C@@H]2C[C@H]1c1cncc(C#N)c1O2)C(F)F (single isomer, unassigned) [Compound 1-85, (2S,5S)-4-(2-(R or S)-(difluoromethyl)-2-methylbutanoyl)-2,3,4,5-tetrahydro-2,5-methanopyrido[3,4-f][1,4]oxazepine-9-carbonitrile]	19
CC1(C(=O)N2C[C@@H]3C[C@H]2c2cncc(C#N)c2O3)CCCC1 [Compound 1-5, (2S,5S)-4-(1-methylcyclopentane-1-carbonyl)-2,3,4,5-tetrahydro-2,5-methanopyrido[3,4-f][1,4]oxazepine-9-carbonitrile]	22
N#Cc1cncc2c1O[C@H]1C[C@@H]2N(C(=O)C2(C(F)(F)F)CCC2)C1 [Compound 1-11, (2S,5S)-4-[1-(trifluoromethyl)cyclobutane-1-carbonyl]-2,3,4,5-tetrahydro-2,5-methanopyrido[3,4-f][1,4]oxazepine-9-carbonitrile]	62
CCC12CC(C(=O)N3C[C@@H]4C[C@H]3c3cncc(C#N)c3O4)(C1)C2 [Compound 1-98, (2S,5S)-4-(3-ethylbicyclo[1.1.1]pentane-1-carbonyl)-2,3,4,5-tetrahydro-2,5-methanopyrido[3,4-f][1,4]oxazepine-9-carbonitrile]	57
CC1(C(=O)N2C[C@@H]3C[C@H]2c2cncc(C#N)c2O3)CC2CCC1C2 (stereo partly drawn) [Compound 1-69, (2S,5S)-4-(2-methylbicyclo[2.2.1]heptane-2-carbonyl)-2,3,4,5-tetrahydro-2,5-methanopyrido[3,4-f][1,4]oxazepine-9-carbonitrile]	77
CC1(C(=O)N2C[C@@H]3C[C@H]2c2cncc(C#N)c2O3)CC1 [Compound 1-76, (2S,5S)-4-(1-methylcyclopropane-1-carbonyl)-2,3,4,5-tetrahydro-2,5-methanopyrido[3,4-f][1,4]oxazepine-9-carbonitrile]	780
N#Cc1cncc2c1O[C@H]1C[C@@H]2N(C(=O)C23CCC(CC2(F)F)C3)C1 (single isomer, unassigned) [Compound 1-49, (2S,5S)-4-[(S or R)-2,2-difluorobicyclo[2.2.1]heptane-1-carbonyl]-2,3,4,5-tetrahydro-2,5-methanopyrido[3,4-f][1,4]oxazepine-9-carbonitrile]	70
N#Cc1cncc2c1O[C@H]1C[C@@H]2N(C(=O)C23CCC(CO2)C3)C1 [Compound 1-108, (2S,5S)-4-(2-oxabicyclo[2.2.1]heptane-1-carbonyl)-2,3,4,5-tetrahydro-2,5-methanopyrido[3,4-f][1,4]oxazepine-9-carbonitrile]	269
CC1(C(=O)N2C[C@@H]3C[C@H]2c2cncc(C#N)c2O3)CCCC(F)(F)C1 (single isomer, unassigned) [Compound 1-40, (2S,5S)-4-[3,3-difluoro-1(R or S)-methylcyclohexane-1-carbonyl]-2,3,4,5-tetrahydro-2,5-methanopyrido[3,4-f][1,4]oxazepine-9-carbonitrile]	62
C=CC(C)(C)C(=O)N1C[C@@H]2C[C@H]1c1cncc(C#N)c1O2 [Compound 1-95, (2S,5S)-4-(2,2-dimethylbut-3-enoyl)-2,3,4,5-tetrahydro-2,5-methanopyrido[3,4-f][1,4]oxazepine-9-carbonitrile]	30
N#Cc1cncc2c1O[C@H]1C[C@@H]2N(C(=O)C2(F)CCN(c3ncnc4scnc34)CC2)C1 [Compound 1-57, (2S,5S)-4-(4-fluoro-1-(thiazolo[5,4-d]pyrimidin-7-yl)piperidine-4-carbonyl)-2,3,4,5-tetrahydro-2,5-methanopyrido[3,4-f][1,4]oxazepine-9-carbonitrile]	35
CC(C(=O)N1C[C@@H]2C[C@H]1c1cncc(C#N)c1O2)(C(F)F)C1CC1 (single isomer, unassigned) [Compound 1-89, (2S,5S)-4-(2-(R or S)-cyclopropyl-3,3-difluoro-2-methylpropanoyl)-2,3,4,5-tetrahydro-2,5-methanopyrido[3,4-f][1,4]oxazepine-9-carbonitrile]	43
CC1(C(=O)N2C[C@@H]3C[C@H]2c2cncc(C#N)c2O3)Cc2cccc(Cl)c21 (single isomer, unassigned) [Compound 1-37, (2S,5S)-4-(5-chloro-7(R or S)-methylbicyclo[4.2.0]octa-1,3,5-triene-7-carbonyl)-2,3,4,5-tetrahydro-2,5-methanopyrido[3,4-f][1,4]oxazepine-9-carbonitrile]	136
CCCC12CC(C(=O)N3C[C@@H]4C[C@H]3c3cncc(C#N)c3O4)(C1)C2 [Compound 1-105, (2S,5S)-4-(3-propylbicyclo[1.1.1]pentane-1-carbonyl)-2,3,4,5-tetrahydro-2,5-methanopyrido[3,4-f][1,4]oxazepine-9-carbonitrile]	92
CC(F)(F)C1(C(=O)N2C[C@@H]3C[C@H]2c2cncc(C#N)c2O3)CCC1 [Compound 1-22, (2S,5S)-4-[1-(1,1-difluoroethyl)cyclobutane-1-carbonyl]-2,3,4,5-tetrahydro-2,5-methanopyrido[3,4-f][1,4]oxazepine-9-carbonitrile]	55
N#Cc1cncc2c1O[C@H]1C[C@@H]2N(C(=O)C23CCCC2C3)C1 (single isomer, unassigned) [Compound 1-32, (2S,5S)-4-[(1R,5R or 1S,5S)-bicyclo[3.1.0]hexane-1-carbonyl]-2,3,4,5-tetrahydro-2,5-methanopyrido[3,4-f][1,4]oxazepine-9-carbonitrile]	290

Continued, values first:

IC50 [nM]	SMILES
79	CC1(C(=O)N2C[C@@H]3C[C@H]2c2cncc(Cl)c2O3)CCCC1 [Compound 2-25, ((2S,5S)-9-chloro-2,3-dihydro-2,5-methanopyrido[3,4-f][1,4]oxazepin-4(5H)-yl)(1-methylcyclopentyl) methanone]
18	O=C(N1C[C@@H]2C[C@H]1c1cncc(C#Cc3ccccc3)c1O2)C12CCC(F)(CC1)C2 [Compound 2-97, (4-Fluorobicyclo[2.2.1]heptan-1-yl)((2S,5S)-9-(phenylethynyl)-2,3-dihydro-2,5-methanopyrido[3,4-f][1,4]oxazepin-4(5H)-yl)methanone]
22	CC(C)(C(=O)N1C[C@@H]2C[C@H]1c1cncc(C#Cc3cnc4c(Cl)cnn4c3)c1O2)C(F)F [Compound 2-81, 1-((2S,5S)-9-((3-chloropyrazolo[1,5-a]pyrimidin-6-yl)ethynyl)-2,3-dihydro-2,5-methanopyrido[3,4-f][1,4]oxazepin-4(5H)-yl)-3,3-difluoro-2,2-dimethylpropan-1-one]
23	Cc1cccc(C#Cc2cncc3c2O[C@H]2C[C@@H]3N(C(=O)C34CCC(F)(CC3)C4)C2)c1 [Compound 2-104, (4-fluorobicyclo[2.2.1]heptan-1-yl)((2S,5S)-9-(m-tolylethynyl)-2,3-dihydro-2,5-methanopyrido[3,4-f][1,4]oxazepin-4(5H)-yl)methanone]
83	CC[C@H](C)CC#Cc1cncc2c1O[C@H]1C[C@@H]2N(C(=O)C(C)(C)C(F)F)C1 [Compound 2-112, 3,3-difluoro-2,2-dimethyl-1-((2S,5S)-9-((S)-4-methylhex-1-yn-1-yl)-2,3-dihydro-2,5-methanopyrido[3,4-f][1,4]oxazepin-4(5H)-yl)propan-1-one]
32	O=C(N1C[C@@H]2C[C@H]1c1cncc(C#CC3CC3)c1O2)C12CCC(F)(CC1)C2 [Compound 2-115, ((2S,5S)-9-(Cyclopropylethynyl)-2,3-dihydro-2,5-methanopyrido[3,4-f][1,4]oxazepin-4(5H)-yl)(4-fluorobicyclo[2.2.1]heptan-1-yl)methanone]
13	O=C(N1C[C@@H]2C[C@H]1c1cncc(C#Cc3cncnc3)c1O2)C12CCC(F)(CC1)C2 [Compound 2-102, (4-fluorobicyclo[2.2.1]heptan-1-yl)((2S,5S)-9-(pyrimidin-5-ylethynyl)-2,3-dihydro-2,5-methanopyrido[3,4-f][1,4]oxazepin-4(5H)-yl)methanone]
57	O=C(N1C[C@@H]2C[C@H]1c1cncc(C#CC3COC3)c1O2)C12CCC(F)(CC1)C2 [Compound 2-119, (4-fluorobicyclo[2.2.1]heptan-1-yl)((2S,5S)-9-(oxetan-3-ylethynyl)-2,3-dihydro-2,5-methanopyrido[3,4-f][1,4]oxazepin-4(5H)-yl)methanone]
61	CCC(C)(C#N)C(=O)N1C[C@@H]2C[C@H]1c1cncc(C#N)c1S2 (single isomer, unassigned) [Compound 4-9, (2S,5S)-4-(2-(R or S)-cyano-2-methylbutanoyl)-2,3,4,5-tetrahydro-2,5-methanopyrido[3,4-f][1,4]thiazepine-9-carbonitrile]
48	O=C(N1C[C@@H]2C[C@H]1c1cncc(C#Cc3cncc(F)c3)c1O2)C12CCC(C(F)(F)F)(CC1)C2 [Compound 2-96, ((2S,5S)-9-((5-Fluoropyridin-3-yl)ethynyl)-2,3-dihydro-2,5-methanopyrido[3,4-f][1,4]oxazepin-4(5H)-yl)(4-(trifluoromethyl)bicyclo[2.2.1]heptan-1-yl)methanone]
66	Cc1ncccc1C#Cc1cncc2c1O[C@H]1C[C@@H]2N(C(=O)C(C)(C)C(F)F)C1 [Compound 2-82, 3,3-difluoro-2,2-dimethyl-1-((2S,5S)-9-((2-methylpyridin-3-yl)ethynyl)-2,3-dihydro-2,5-methanopyrido[3,4-f][1,4]oxazepin-4(5H)-yl)propan-1-one]
